The text below walks through data of patent US12421249B2, “Inhibitors of APOL1 and methods of using same” (Vertex Pharmaceuticals Incorporated, priority 2020, dated 2025).

This experiment addresses T1, APOL1 (Homo sapiens, UniProt O14791).
T1 sequence (O14791 1-398 S342G/I384M): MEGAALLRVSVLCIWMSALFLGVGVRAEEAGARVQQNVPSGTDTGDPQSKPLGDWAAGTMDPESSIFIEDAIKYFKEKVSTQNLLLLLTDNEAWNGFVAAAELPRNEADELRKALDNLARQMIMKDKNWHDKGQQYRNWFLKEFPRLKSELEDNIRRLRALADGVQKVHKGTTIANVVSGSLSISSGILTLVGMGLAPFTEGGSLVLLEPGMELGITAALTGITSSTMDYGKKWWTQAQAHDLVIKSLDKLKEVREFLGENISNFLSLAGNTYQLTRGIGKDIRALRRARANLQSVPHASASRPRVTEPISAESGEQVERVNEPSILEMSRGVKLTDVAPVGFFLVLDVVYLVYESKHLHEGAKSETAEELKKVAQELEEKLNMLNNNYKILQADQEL
Briefly: Multi-Tox Assay (MultiTox-Fluor Multiplex Cytotoxicity Assay in tet-inducible APOL1 T-REx-HEK293 cells; Table 46 does not say which APOL1 variant G0/G1/G2). The following applies: APOL1 variant not given; for IC50: IP50 = IC50 for cell proliferation. The class given is cell-based.

As to `Cc1ccccc1C(O)Cn1cc([C@@H]2C[C@]3(C[C@H](C)N2)OC[C@@H](O)c2cc(Cl)sc23)nn1` (some centres unmarked) [Compound 261], the “Multi-Tox Assay Max Activity (%)” value was found to be 100.0% and the IC50 is 50 to 500 nM.
In the case of `C[C@H]1C[C@@]2(C[C@@H](c3cn(CCc4ccncn4)nn3)N1)OC[C@@H](O)c1cc(Cl)sc12` [Compound 262], the “Multi-Tox Assay Max Activity (%)” value was 99.0% and the 50% inhibitory concentration (IC50) is 50 to 500 nM.
`COC(=O)Cn1cc([C@@H]2C[C@]3(C[C@H](C)N2)OC[C@@H](O)c2cc(Cl)sc23)nn1` [Compound 263] showed an IC50 of more than 500 nM.
For `CC(CO)CCn1cc([C@@H]2C[C@]3(C[C@H](C)N2)OC[C@@H](O)c2cc(Cl)sc23)nn1` (some centres unmarked) [Compound 264], the “Multi-Tox Assay Max Activity (%)” value was determined as 100.0% and the IC50 was less than 50 nM.
On the same counts, the results for `C[C@H]1C[C@@]2(C[C@@H](c3cn(CC4CCS(=O)(=O)C4)nn3)N1)OC[C@@H](O)c1cc(Cl)sc12` (some centres unmarked) [Compound 265] are 99.0% and 50 to 500 nM.
In the same order, the values of `C[C@H]1C[C@@]2(C[C@@H](c3cn(Cc4ccc(OC5CCOCC5)cc4)nn3)N1)OC[C@@H](O)c1cc(Cl)sc12` [Compound 266] are 100.0% and less than 50 nM.
As to `C[C@H]1C[C@@]2(C[C@@H](c3cn(CC4CCOCC4)nn3)N1)OC[C@@H](O)c1cc(Cl)sc12` [Compound 267], the “Multi-Tox Assay Max Activity (%)” value amounted to 99.0% and the IC50 was 50 to 500 nM.
In the same order, the values of `C[C@H]1C[C@@]2(C[C@@H](c3cn(Cc4cccc5c4OCCO5)nn3)N1)OC[C@@H](O)c1cc(Cl)sc12` [Compound 268] are 99.0% and 50 to 500 nM.
In the same order, the values of `C[C@H]1C[C@@]2(C[C@@H](c3cn(CC4CCOC4)nn3)N1)OC[C@@H](O)c1cc(Cl)sc12` (some centres unmarked) [Compound 269] are 99.0% and 50 to 500 nM.
On the same counts, the results for `COCC1(Cn2cc([C@@H]3C[C@]4(C[C@H](C)N3)OC[C@@H](O)c3cc(Cl)sc34)nn2)CC1` [Compound 270] are 93.0% and 50 to 500 nM.
Turning to `C[C@H]1C[C@@]2(C[C@@H](c3cn(Cc4cccc(CO)c4)nn3)N1)OC[C@@H](O)c1cc(Cl)sc12` [Compound 271], the “Multi-Tox Assay Max Activity (%)” value was determined as 97.0% and the IC50 is less than 50 nM.
Regarding `Cc1nnc(Cn2cc([C@@H]3C[C@]4(C[C@H](C)N3)OC[C@@H](O)c3cc(Cl)sc34)nn2)[nH]1` [Compound 272], the “Multi-Tox Assay Max Activity (%)” value is reported as 95.0% and the IC50 is 50 to 500 nM.
`C[C@H]1C[C@@]2(C[C@@H](c3cn(CCC4CCCOC4)nn3)N1)OC[C@@H](O)c1cc(Cl)sc12` (some centres unmarked) [Compound 273] yielded a 50% inhibitory concentration (IC50) of less than 50 nM.
Take `Cc1ccnn1CCn1cc([C@@H]2C[C@]3(C[C@H](C)N2)OC[C@@H](O)c2cc(Cl)sc23)nn1` [Compound 274]: the “Multi-Tox Assay Max Activity (%)” value is given as 97.0% and the IC50 lay within 50 to 500 nM.
For `C[C@H]1C[C@@]2(C[C@@H](c3cn(Cc4ccc(O)nc4)nn3)N1)OC[C@@H](O)c1cc(Cl)sc12` [Compound 275], the “Multi-Tox Assay Max Activity (%)” value was determined as 94.0% and the IC50 was 50 to 500 nM.
In the same order, the values of `C[C@H]1C[C@@]2(C[C@@H](c3cn(Cc4cnccn4)nn3)N1)OC[C@@H](O)c1cc(Cl)sc12` [Compound 276] are 100.0% and 50 to 500 nM.
On the same counts, the results for `Cc1ncc(Cn2cc([C@@H]3C[C@]4(C[C@H](C)N3)OC[C@@H](O)c3cc(Cl)sc34)nn2)cn1` [Compound 277] are 100.0% and less than 50 nM.
For `COc1cccc(Cn2cc([C@@H]3C[C@]4(C[C@H](C)N3)OC[C@@H](O)c3cc(Cl)sc34)nn2)c1` [Compound 278], the “Multi-Tox Assay Max Activity (%)” value amounted to 100.0% and the IC50 is less than 50 nM.
In the case of `C[C@H]1C[C@@]2(C[C@@H](c3cn(Cc4cccc(O)c4)nn3)N1)OC[C@@H](O)c1cc(Cl)sc12` [Compound 279], the “Multi-Tox Assay Max Activity (%)” value stood at 97.0% and the IC50 was in the range of 50 to 500 nM.
On the same counts, the results for `C[C@H]1C[C@@]2(C[C@@H](c3cn(Cc4cccnn4)nn3)N1)OC[C@@H](O)c1cc(Cl)sc12` [Compound 280] are 99.0% and 50 to 500 nM.
As to `C[C@H]1C[C@@]2(C[C@@H](c3cn(CC(O)c4ccccc4)nn3)N1)OC[C@@H](O)c1cc(Cl)sc12` (some centres unmarked) [Compound 281], the “Multi-Tox Assay Max Activity (%)” value stood at 99.0% and the IC50 is 50 to 500 nM.
In the same order, the values of `COCCn1cc([C@@H]2C[C@]3(C[C@H](C)N2)OC[C@@H](O)c2cc(Cl)sc23)nn1` [Compound 282] are 99.0% and less than 50 nM.
As for `C[C@H]1C[C@@]2(C[C@@H](c3cn(CC(F)F)nn3)N1)OC[C@@H](O)c1cc(Cl)sc12` [Compound 283], the IC50 fell in the range of 50 to 500 nM.
On the same count and under the same terms, the value for `CCC(O)Cn1cc([C@@H]2C[C@]3(C[C@H](C)N2)OC[C@@H](O)c2cc(Cl)sc23)nn1` (some centres unmarked) [Compound 284] was 50 to 500 nM.
As for `Cc1c(Cn2cc([C@@H]3C[C@]4(C[C@H](C)N3)OC[C@@H](O)c3cc(Cl)sc34)nn2)cnn1C` [Compound 285], the “Multi-Tox Assay Max Activity (%)” value was determined as 98.0% and the IC50 lay within 50 to 500 nM.
Regarding `C[C@H]1C[C@@]2(C[C@@H](c3cn(CCC#N)nn3)N1)OC[C@@H](O)c1cc(Cl)sc12` [Compound 286], the “Multi-Tox Assay Max Activity (%)” value is 98.0% and the IC50 is less than 50 nM.
For the molecule `CC(C)N1CC(Cn2cc([C@@H]3C[C@]4(C[C@H](C)N3)OC[C@@H](O)c3cc(Cl)sc34)nn2)CC1=O` (some centres unmarked) [Compound 287], the “Multi-Tox Assay Max Activity (%)” value was determined as 96.0% and the IC50 fell in the range of 50 to 500 nM.
On the same counts, the results for `C[C@H]1C[C@@]2(C[C@@H](c3cn(CCC(N)=O)nn3)N1)OC[C@@H](O)c1cc(Cl)sc12` [Compound 288] are 97.0% and 50 to 500 nM.
`C[C@H]1C[C@@]2(C[C@@H](c3cn(CC4(F)CCOCC4)nn3)N1)OC[C@@H](O)c1cc(Cl)sc12` [Compound 289] came in with an IC50 of more than 500 nM.
Take `CCn1cc(Cn2cc([C@@H]3C[C@]4(C[C@H](C)N3)OC[C@@H](O)c3cc(Cl)sc34)nn2)cn1` [Compound 290]: the “Multi-Tox Assay Max Activity (%)” value is 99.0% and the IC50 fell in the range of 50 to 500 nM.
In the same order, the values of `C[C@H]1C[C@@]2(C[C@@H](c3cn(Cc4cocn4)nn3)N1)OC[C@@H](O)c1cc(Cl)sc12` [Compound 291] are 100.0% and 50 to 500 nM.
In the case of `C[C@H]1C[C@@]2(C[C@@H](c3cn(Cc4ccccn4)nn3)N1)OC[C@@H](O)c1cc(Cl)sc12` [Compound 292], the “Multi-Tox Assay Max Activity (%)” value is recorded as 99.0% and the IC50 was 50 to 500 nM.
On the same counts, the results for `COc1cc(F)cc(Cn2cc([C@@H]3C[C@]4(C[C@H](C)N3)OC[C@@H](O)c3cc(Cl)sc34)nn2)c1` [Compound 293] are 100.0% and less than 50 nM.
In the same order, the values of `Cc1ccc(Cn2cc([C@@H]3C[C@]4(C[C@H](C)N3)OC[C@@H](O)c3cc(Cl)sc34)nn2)nc1` [Compound 294] are 100.0% and 50 to 500 nM.
On the same counts, the results for `COc1ccc(Cn2cc([C@@H]3C[C@]4(C[C@H](C)N3)OC[C@@H](O)c3cc(Cl)sc34)nn2)cc1` [Compound 295] are 99.0% and less than 50 nM.
